Reference: publication PMC12221989, “One-carbon homologation of alkenes” (Nature, 2025)

Key:
in vitro = settings: human; for half-life at 1 µM: both, liver microsomes
Method: Metabolic stability assay
Hepatic microsomal stability assays were conducted by Charles River Laboratories. Assays were performed in duplicate.
The stability of the test compound (1 µM) was measured following incubation at 37 °C with […] (0.5 mg protein/mL) in the presence of the cofactor, NADPH.
Incubates were prepared in duplicate, with aliquots removed at 0, 5, 10, 20 and 40 minutes and reactions terminated, and the compound was extracted by the addition of solvent. The disappearance of the parent compound was be monitored by LC-MS/MS and the half-life determined over the time-course of incubation. The half-life value was used to calculate the in vitro intrinsic clearance expressed as µL/min/mg protein.
Table S11. Metabolic Stability Data
Half- Half- Half- Clint Clint Mean Clint
Compound Cofactor life life Life (uL/min/mg (uL/min/mg (uL/min/mg Species (min) (min) (min) protn) n=1 protn) n=2 protn) (results)

T cell proliferation = settings: Fig. 1a; cited from earlier work
From the text: Fig. 1 Evolution of a strategy for one-carbon alkene homologation. a, The effect of homologues on biological activity: side chain length compared with immunosuppressive activity in a family of natural products. b, Homologation processes for common functional groups. c, Generally adopted sequence for alkene homologation. d, Design plan for a catalytic one-carbon alkene homologation process. TEXT PRINTED IN THE PICTURE: (a) R = CH3 FK-523 (FR-900523): T cell proliferation IC50 (nM): 2.72 | (a) R = CH2CH3 FK-520 (ascomycin): T cell proliferation IC50 (nM): 0.69 | (a) R = CH2CH2CH3: T cell prolife ...

Jurkat cells = experiment: IL-2 release assay, Jurkat cells stimulated with anti-CD3/anti-CD28; type: cell-based, human; settings: for IL-2 levels, Mean: mean of three replicates normalized to the vehicle control
Method: Interleukin-2 (IL-2) release assays were conducted by Eurofins Pan Labs to determine ability for the analogues to inhibit IL-2 secretion from Jurkat cells following stimulation with anti-CD3 and anti-CD28 for a period of 24 hours. Data shown are means of three replicates normalized to the vehicle control
1) Cryopreserved Jurkat cells were thawed and cultured according to established protocols for four days at 37°C, 5% CO2 prior to assay.
2) Jurkat cells were harvested and seeded into 96-well plates at a density of 2x10^5 cells/well with […]
penicillin/streptomycin, and 2 mM L-glutamine).
3) Cells were incubated at 37°C, 5% CO2 for 1 hour prior to the addition of test agents.
4) The test agents were serially diluted in DMSO to 1000X assay concentrations, then further diluted to 20X assay concentrations in culture medium. The reference inhibitor Cyclosporin A (Sigma Aldrich catalog #C1832) was diluted to 1000X assay concentrations in DMSO before dilution to 20X assay concentration in culture medium.
5) The test agents, reference inhibitor, and diluted vehicle controls were added to the cells in volumes of 10 μL in triplicate and incubated for 1 hour at 37°C, 5% CO2. […]
concentrations in culture medium. The corresponding isotype controls were diluted to 5X assay concentrations in culture medium.
7) Diluted anti-CD3/anti-CD28 was added to test agent and positive control wells in volumes of 40 μL according to the plate map. Isotype controls were added to the isotype control wells.
Culture medium was added to vehicle and unstimulated control wells. […]
assay volumes of 200 μL and control concentrations of 50 ng/mL cyclosporin A (reference inhibitor), 0.1% DMSO (vehicle), 15 μg/mL anti-CD3, and 15 μg/mL anti-CD28.
8) Cells were incubated for 24 hours at 37°C, 5% CO2.
9) At the end of the incubation period, plates were centrifuged at 200g for 10 minutes. Cell culture supernatants were collected and stored at -80°C until needed for analysis.
Data Analysis and Analyte Limits of Detection
IL-2 cytokine levels in cell culture supernatants were determined using Luminex methodology per the manufacturer’s protocol using the Human Cytokine/Chemokine/Growth Factor Panel A Kit from Millipore Sigma (catalog #HCYTA-60K) with standard ranges and limits of detection in Table S9. Levels of each cytokine were interpolated from standard curves using non-linear regression analysis in Belysa Software (Millipore Sigma). The raw data in the form of median fluorescence unit was interpolated into test concentrations (pg/mL). The interpolated data were then normalized to the vehicle control
Table S9. Analyte limit of detection
Analyte Lowest standard (pg/mL) Highest standard (pg/mL) Sensitivity (pg/mL) […]
Reported mean values (pg/mL) are from three biological replicates normalized to the vehicle […]
Fig. S5. IL-2 release by Jurkat cells following stimulation with anti-CD3/anti-CD28 and treatment with the indicated test agent for 24 hours. Error bars indicate the standard error of the […]

[1] = Reversed-phase HPLC retention as measure of lipophilicity; settings: reversed-phase C18, Fig. S4-b; corroborates calculated lipophilicity
Human Cyclophilin A = Human Cyclophilin A (Homo sapiens, UniProt P62937); experiment: PPIase TR-FRET competitive binding assay
Human Cyclophilin A, sequence (P62937 whole entry): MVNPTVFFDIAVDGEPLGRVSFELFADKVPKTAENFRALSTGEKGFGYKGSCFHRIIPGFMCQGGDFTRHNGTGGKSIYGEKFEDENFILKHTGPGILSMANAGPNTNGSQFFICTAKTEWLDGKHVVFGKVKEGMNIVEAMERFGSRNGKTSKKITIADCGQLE
Method: PPIase TR-FRET competitive binding assay
Cyclophilin A assays were conducted by Eurofins Integrated Discovery UK Ltd (EID) to determine the inhibitory activity of the analogues against the Human Cyclophilin A in a TR-FRET Competitive Binding assay. Assays were performed in duplicate, with Kd values calculated from mean averages. […]
binding to the CypA enzyme: the CypA enzyme, tagged with a polyhistidine sequence, forms a complex with an anti-6xHis antibody labelled with a fluorescent donor, F(d), and the enzyme […]
Compounds are diluted from DMSO stocks to 50-fold the final concentration and then in assay buffer to 2-fold the final assay plate concentration. An equal volume of compound is added to the master mix in the assay plate containing the enzyme/antibody/ligand complex, with a final concentration of detergent of 0.01%. This is incubated for 30 mins at room temperature and the plate read at 2 wavelengths (A and B) to detect emission from F(d) and F(a), respectively. The ratio B/A is calculated, blank subtracted and either expressed as a percentage of the ‘no inhibitor’ control or the blank subtracted values are plotted against the inhibitor concentration in Log10 Molar and fitted using one site Ki nonlinear regression to determine the Kd. Where possible, compound Kds are determined from duplicate data points. Each assay plate is set up with ‘no enzyme’ blanks and ‘no inhibitor’ controls, which are used to determine the Z’ value for each plate.

[2] = system: calcineurin in the presence of Cyclophilin A; experiment: Calcineurin inhibition assay (phosphatase activity in the presence of Cyclophilin A); type: biochemical
Method: Calcineurin inhibition assay
Calcineurin inhibition assays were conducted by Eurofins Integrated Discovery UK Ltd (EID) to determine the effect of compounds on the activity of calcineurin in the presence of Cyclophilin A. Assays were performed in duplicate, with IC50 values calculated from mean […]
Compounds were diluted with and without immunophilin (CypA) in a 96-well plate. After addition of calcineurin/calmodulin complex, the plate was incubated at 30 °C for 10 minutes.
The addition of the RII phosphopeptide substrate initiated the reaction, and the plate was […]
The reaction was stopped by the addition of Malachite green reagent. The plate was incubated at room temperature to allow colour development (5 – 20 mins). After sufficient colour has developed, the absorbance is read at 620 nm. Blank subtracted absorbance readings are plotted against compound concentration to determine IC50 values or % inhibition at the top concentration.

[3] = in vitro calcineurin phosphatase activity assay

COc1ccc2c(c1)[C@]13CCCC[C@@H]1[C@H](C2)N(C)CC3 [Dextromethorphan, reference compound]
Clint (uL/min/mg protn) n=1 (in vitro): 29 | Clint (uL/min/mg protn) n=2 (in vitro): 29 | Half-Life (min) (Mean) (in vitro): 48 min | Half-life (min) n=1 (in vitro): 49 min | Half-life (min) n=2 (in vitro): 47 min | Mean Clint (uL/min/mg protn) (in vitro): 29

CC[C@@H]1/C=C(\C)C[C@H](C)C[C@H](OC)[C@H]2O[C@@](O)(C(=O)C(=O)N3CCCC[C@H]3C(=O)O[C@H](/C(C)=C/[C@@H]3CC[C@@H](O)[C@H](OC)C3)[C@H](C)[C@@H](O)CC1=O)[C@H](C)C[C@@H]2OC [FK-520, ascomycin]
IC50 (T cell proliferation): 0.69 nM

CO[C@H]1C[C@@H](C)C/C(C)=C\[C@@H](C)C(=O)C[C@H](O)[C@@H](C)[C@@H](/C(C)=C/[C@@H]2CC[C@@H](O)[C@H](OC)C2)OC(=O)[C@@H]2CCCCN2C(=O)C(=O)[C@]2(O)O[C@H]1[C@@H](OC)C[C@H]2C [FK-523]
IC50 (T cell proliferation): 2.72 nM

Cc1ncc2n1-c1ccc(Cl)cc1C(c1ccccc1F)=NC2 [Midazolam, reference compound]
Clint (uL/min/mg protn) n=1 (in vitro): 277 | Clint (uL/min/mg protn) n=2 (in vitro): 277 | Half-Life (min) (Mean) (in vitro): 5 min | Half-life (min) n=1 (in vitro): 5 min | Half-life (min) n=2 (in vitro): 5 min | Mean Clint (uL/min/mg protn) (in vitro): 277

CCCC1C=C(C)CC(C)CC(OC)C2OC(O)(C(=O)C(=O)N3CCCCC3C(=O)OC(C(C)=CC3CCC(O)C(OC)C3)C(C)C(O)CC1=O)C(C)CC2OC (centres unmarked) [R = CH2CH2CH3]
IC50 (T cell proliferation): 0.93 nM

C=CC[C@@H]1/C=C(\C)C[C@H](C)C[C@H](OC)[C@H]2O[C@@](O)(C(=O)C(=O)N3CCCC[C@H]3C(=O)O[C@H](/C(C)=C/[C@@H]3CC[C@@H](O)[C@H](OC)C3)[C@H](C)[C@@H](O)CC1=O)[C@H](C)C[C@@H]2OC [Tacrolimus, tacrolimus]
IC50 (T cell proliferation): 0.18 nM

C/C=C/CC[C@@H](C)[C@@H](O)[C@H]1C(=O)N[C@@H](CC)C(=O)N(C)CC(=O)N(C)[C@@H](CC(C)C)C(=O)N[C@@H](C(C)C)C(=O)N(C)[C@@H](CC(C)C)C(=O)N[C@@H](C)C(=O)N[C@H](C)C(=O)N(C)[C@@H](CC(C)C)C(=O)N(C)[C@@H](CC(C)C)C(=O)N(C)[C@@H](C(C)C)C(=O)N1C [compound 21, E-homo Cyclosporine-A]
suppression of IL-2 secretion (in words) (Jurkat cells; at high concentrations (≥1 µM), Jurkat T cells): effectively suppressed IL-2 secretion | IL-2 levels, Mean (Jurkat cells; test agent 0.10 µM): 11.7 pg/mL | IL-2 levels, Mean (Jurkat cells; test agent 0.32 µM): 3.5 pg/mL | IL-2 levels, Mean (Jurkat cells; test agent 1.0 µM): 1.6 pg/mL | IL-2 levels, Mean (Jurkat cells; test agent 3.2 µM): 1.1 pg/mL | IL-2 levels, Mean (Jurkat cells; test agent 10 µM): 1.0 pg/mL | increase of HPLC retention time upon each homologation event [1]: ~ 2.5 minutes | Kd (Human Cyclophilin A): 76.7 nM | half-life at 1 µM (in vitro): 32 min | Clint (uL/min/mg protn) n=1 (in vitro): 40 uL/min/mg protn | Clint (uL/min/mg protn) n=2 (in vitro): 46 uL/min/mg protn | Half-life (min) n=1 (in vitro): 35 min | Half-life (min) n=2 (in vitro): 30 min | Mean Clint (uL/min/mg protn) (in vitro): 43 uL/min/mg protn | decrease in phosphatase activity compared with cyclosporine A [2, 3]: 3.5 fold | IC50 ([2]; with CypA, calcineurin/calmodulin, RII phosphopeptide substrate, 30 °C 45 min, Malachite green A620, duplicate, IC50 from mean averages): 401 nM

[2H]C([2H])([2H])/C=C/CC[C@@H](C)[C@@H](O)[C@H]1C(=O)N[C@@H](CC)C(=O)N(C)CC(=O)N(C)[C@@H](CC(C)C)C(=O)N[C@@H](C(C)C)C(=O)N(C)[C@@H](CC(C)C)C(=O)N[C@@H](C)C(=O)N[C@H](C)C(=O)N(C)[C@@H](CC(C)C)C(=O)N(C)[C@@H](CC(C)C)C(=O)N(C)[C@@H](C(C)C)C(=O)N1C [compound 23]
Kd (Human Cyclophilin A): 45.9 nM | half-life at 1 µM (in vitro): 31 min | Clint (uL/min/mg protn) n=1 (in vitro): 44 uL/min/mg protn | Clint (uL/min/mg protn) n=2 (in vitro): 45 uL/min/mg protn | Half-life (min) n=1 (in vitro): 32 min | Half-life (min) n=2 (in vitro): 31 min | Mean Clint (uL/min/mg protn) (in vitro): 44 uL/min/mg protn

CC[C@@H]1NC(=O)[C@H]([C@H](O)[C@H](C)CC/C=C\F)N(C)C(=O)[C@H](C(C)C)N(C)C(=O)[C@H](CC(C)C)N(C)C(=O)[C@H](CC(C)C)N(C)C(=O)[C@@H](C)NC(=O)[C@H](C)NC(=O)[C@H](CC(C)C)N(C)C(=O)[C@H](C(C)C)NC(=O)[C@H](CC(C)C)N(C)C(=O)CN(C)C1=O [compound 24]
Clint (uL/min/mg protn) n=1 (in vitro): 48 uL/min/mg protn | Clint (uL/min/mg protn) n=2 (in vitro): 53 uL/min/mg protn | Half-life (min) n=1 (in vitro): 29 min | Half-life (min) n=2 (in vitro): 26 min | Mean Clint (uL/min/mg protn) (in vitro): 51 uL/min/mg protn | decrease in phosphatase activity compared with cyclosporine A [2, 3]: 10 fold

C=CCCC[C@@H](C)[C@@H](O)[C@H]1C(=O)N[C@@H](CC)C(=O)N(C)CC(=O)N(C)[C@@H](CC(C)C)C(=O)N[C@@H](C(C)C)C(=O)N(C)[C@@H](CC(C)C)C(=O)N[C@@H](C)C(=O)N[C@H](C)C(=O)N(C)[C@@H](CC(C)C)C(=O)N(C)[C@@H](CC(C)C)C(=O)N(C)[C@@H](C(C)C)C(=O)N1C [compound 26, homoisocyclosporine A]
Kd (Human Cyclophilin A): 10.2 nM | Clint (uL/min/mg protn) n=1 (in vitro): 69 uL/min/mg protn | Clint (uL/min/mg protn) n=2 (in vitro): 65 uL/min/mg protn | Mean Clint (uL/min/mg protn) (in vitro): 67 uL/min/mg protn | calcineurin inhibition compared with cyclosporine A (in words) [2, 3]: restored calcineurin inhibition to levels comparable with those of cyclosporine A
